According to ChEMBL document CHEMBL5120960, “Unveiling the Structure-Activity Relationships at the Orthosteric Binding Site of P2X Ion Channels: The Route to Selectivity” (J Med Chem, 2022):

How the values were obtained:
Assay type in all cases: cell-based
P2X purinoceptor 1 = biological target: T1, P2X purinoceptor 1 (Homo sapiens, UniProt P51575); assay: […] activity at human P2X1R expressing CHO cells assessed as reduction in intracellular Ca2+ influx pretreated with Fluo-4 for 1 hr followed by compound addition and further incubated for 30 mins in presence of ATP by multimode plate reader analysis
T1 sequence (P51575 whole entry): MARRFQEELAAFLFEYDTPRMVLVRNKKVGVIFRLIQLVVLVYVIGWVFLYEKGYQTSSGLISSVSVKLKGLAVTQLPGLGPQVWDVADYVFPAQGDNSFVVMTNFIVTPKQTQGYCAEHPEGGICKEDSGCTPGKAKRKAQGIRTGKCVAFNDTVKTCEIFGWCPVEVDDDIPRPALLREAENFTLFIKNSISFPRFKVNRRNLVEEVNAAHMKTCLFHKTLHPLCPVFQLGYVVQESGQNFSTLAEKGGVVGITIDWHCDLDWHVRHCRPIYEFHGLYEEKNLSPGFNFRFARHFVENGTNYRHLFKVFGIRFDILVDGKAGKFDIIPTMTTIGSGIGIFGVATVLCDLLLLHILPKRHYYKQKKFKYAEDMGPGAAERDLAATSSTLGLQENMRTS

P2X purinoceptor 2 = biological target: T2, P2X purinoceptor 2 (Homo sapiens, UniProt Q9UBL9); assay: […] activity at human P2X2R expressing CHO cells assessed as reduction in intracellular Ca2+ influx pretreated with Fluo-4 for 1 hr followed by compound addition and further incubated for 30 mins in presence of ATP by multimode plate reader analysis
T2 sequence (Q9UBL9 whole entry): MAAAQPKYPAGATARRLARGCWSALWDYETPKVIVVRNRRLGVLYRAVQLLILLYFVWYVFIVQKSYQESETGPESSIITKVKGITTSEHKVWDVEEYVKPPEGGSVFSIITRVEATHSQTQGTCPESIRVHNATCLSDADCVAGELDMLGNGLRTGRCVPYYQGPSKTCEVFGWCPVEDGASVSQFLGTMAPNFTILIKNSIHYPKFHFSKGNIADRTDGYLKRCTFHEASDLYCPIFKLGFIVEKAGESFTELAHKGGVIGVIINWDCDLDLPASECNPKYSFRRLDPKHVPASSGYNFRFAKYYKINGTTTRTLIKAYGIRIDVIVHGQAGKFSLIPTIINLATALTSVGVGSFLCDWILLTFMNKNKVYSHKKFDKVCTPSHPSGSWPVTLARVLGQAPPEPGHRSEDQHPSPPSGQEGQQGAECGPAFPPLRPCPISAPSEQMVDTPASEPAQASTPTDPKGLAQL

P2X purinoceptor 3 = biological target: T3, P2X purinoceptor 3 (Homo sapiens, UniProt P56373); assay: […] activity at human P2X3R expressing CHO cells assessed as reduction in intracellular Ca2+ influx pretreated with Fluo-4 for 1 hr followed by compound addition and further incubated for 30 mins in presence of ATP by multimode plate reader analysis
T3 sequence (P56373 whole entry): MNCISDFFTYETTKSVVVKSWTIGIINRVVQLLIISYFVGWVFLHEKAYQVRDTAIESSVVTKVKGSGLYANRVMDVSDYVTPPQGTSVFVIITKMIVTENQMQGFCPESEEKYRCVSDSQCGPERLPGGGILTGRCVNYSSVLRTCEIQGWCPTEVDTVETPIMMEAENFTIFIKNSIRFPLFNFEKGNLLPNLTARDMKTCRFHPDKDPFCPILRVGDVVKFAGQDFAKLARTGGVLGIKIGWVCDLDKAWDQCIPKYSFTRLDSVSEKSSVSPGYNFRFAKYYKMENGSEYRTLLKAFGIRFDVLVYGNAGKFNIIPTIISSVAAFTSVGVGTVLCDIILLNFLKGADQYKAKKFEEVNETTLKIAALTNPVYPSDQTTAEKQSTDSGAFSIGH

[1] = biological target: T4, P2X2/P2X3 heterotrimeric receptor (Homo sapiens, UniProt P56373+Q9UBL9); assay: […] activity at human P2X2R/P2X3R expressing CHO cells assessed as reduction in intracellular Ca2+ influx pretreated with Fluo-4 for 1 hr followed by compound addition and further incubated for 30 mins in presence of ATP by multimode plate reader analysis
T4 sequence (Q9UBL9 whole entry): T2 sequence (Q9UBL9 whole entry)
T4 sequence (P56373 whole entry): T3 sequence (P56373 whole entry)

P2X purinoceptor 4 = biological target: T5, P2X purinoceptor 4 (Homo sapiens, UniProt Q99571); assay: […] activity at human P2X4R expressing HEK293 cells assessed as reduction in intracellular Ca2+ influx pretreated with Fluo-4 for 1 hr followed by compound addition and further incubated for 30 mins in presence of ATP by multimode plate reader analysis
T5 sequence (Q99571 whole entry): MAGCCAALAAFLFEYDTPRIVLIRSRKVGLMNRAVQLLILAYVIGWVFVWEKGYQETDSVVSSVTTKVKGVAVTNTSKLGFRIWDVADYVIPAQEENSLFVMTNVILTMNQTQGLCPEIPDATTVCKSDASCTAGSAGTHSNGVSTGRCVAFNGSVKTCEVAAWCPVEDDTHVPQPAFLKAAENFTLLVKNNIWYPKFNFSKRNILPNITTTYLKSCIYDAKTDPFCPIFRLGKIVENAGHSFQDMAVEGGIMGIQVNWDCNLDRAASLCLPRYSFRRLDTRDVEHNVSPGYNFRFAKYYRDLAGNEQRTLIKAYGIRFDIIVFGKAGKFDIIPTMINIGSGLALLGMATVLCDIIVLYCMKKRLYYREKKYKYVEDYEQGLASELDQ

P2X purinoceptor 7 [2] = biological target: T6, P2X purinoceptor 7 (Homo sapiens, UniProt Q99572); assay: […] activity at human P2X7R expressing HEK293 cells assessed as reduction in intracellular Ca2+ influx pretreated with Fluo-4 for 1 hr followed by compound addition and further incubated for 30 mins in presence of ATP by multimode plate reader analysis
T6 sequence (Q99572 whole entry): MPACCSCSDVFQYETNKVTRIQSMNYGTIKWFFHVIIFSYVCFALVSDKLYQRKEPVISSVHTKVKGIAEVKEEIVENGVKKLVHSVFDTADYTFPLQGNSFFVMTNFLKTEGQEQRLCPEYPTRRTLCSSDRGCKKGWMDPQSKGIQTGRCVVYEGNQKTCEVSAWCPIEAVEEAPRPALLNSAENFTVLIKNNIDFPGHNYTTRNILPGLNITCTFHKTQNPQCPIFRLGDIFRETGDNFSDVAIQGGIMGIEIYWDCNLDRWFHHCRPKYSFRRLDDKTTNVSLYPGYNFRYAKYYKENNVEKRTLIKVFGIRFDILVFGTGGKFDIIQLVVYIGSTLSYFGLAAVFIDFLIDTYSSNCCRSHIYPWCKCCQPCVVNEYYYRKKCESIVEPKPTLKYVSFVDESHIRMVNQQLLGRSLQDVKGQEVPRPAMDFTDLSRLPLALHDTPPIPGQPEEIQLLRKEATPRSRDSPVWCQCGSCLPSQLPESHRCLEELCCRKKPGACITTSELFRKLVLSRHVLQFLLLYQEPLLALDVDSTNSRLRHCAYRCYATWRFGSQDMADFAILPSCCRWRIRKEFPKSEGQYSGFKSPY

P2X purinoceptor 7 [3] = biological target: T6, P2X purinoceptor 7; assay: […] activity at human P2X7R expressed in HEK293 cells assessed as reduction in YO-PRO-1 iodide dye uptake preincubated for 30 mins followed by YO-PRO-1 iodide addition and measured after 2 hrs by fluorescence based multimode plate reader analysis

IC50 (P2X purinoceptor 1)	IC50 (P2X purinoceptor 2)	IC50 (P2X purinoceptor 3)	IC50 [1]	IC50 (P2X purinoceptor 4)	IC50 (P2X purinoceptor 7 [2])	IC50 (P2X purinoceptor 7 [3])	SMILES
> 100 µM	> 100 µM	1.29 µM	0.263 µM	> 100 µM	> 100 µM	> 100 µM	CNc1ncnc2c1ncn2[C@@H]1O[C@H](COP(=O)(O)OP(=O)(O)OP(=O)(O)O)[C@@H](O)[C@H]1O
> 100 µM	> 100 µM	30.2 µM	0.692 µM	> 100 µM	> 100 µM	> 100 µM	CCCCNc1ncnc2c1ncn2[C@@H]1O[C@H](COP(=O)(O)OP(=O)(O)OP(=O)(O)O)[C@@H](O)[C@H]1O
0.00355 µM	0.0871 µM	0.741 µM	0.129 µM	> 100 µM	> 100 µM	> 100 µM	O=P(O)(O)OP(=O)(O)OP(=O)(O)OC[C@H]1O[C@@H](n2cnc3c(Cl)ncnc32)[C@H](O)[C@@H]1O

The remaining lines, values behind:

SMILES	IC50 (P2X purinoceptor 1)	IC50 (P2X purinoceptor 2)	IC50 (P2X purinoceptor 3)	IC50 [1]	IC50 (P2X purinoceptor 4)	IC50 (P2X purinoceptor 7 [2])	IC50 (P2X purinoceptor 7 [3])
[N-]=[N+]=Nc1nc2c(N)ncnc2n1[C@@H]1O[C@H](COP(=O)(O)OP(=O)(O)OP(=O)(O)O)[C@@H](O)[C@H]1O	> 100 µM	> 100 µM	> 100 µM	> 100 µM	> 100 µM	> 100 µM	> 100 µM
O=c1[nH]c2cncnc2n1[C@@H]1O[C@H](COP(=O)(O)OP(=O)(O)OP(=O)(O)O)[C@@H](O)[C@H]1O	> 100 µM	> 100 µM	11 µM	> 100 µM	> 100 µM	> 100 µM	> 100 µM
Nc1ncnc2c1ncn2[C@@H]1O[C@H](COP(=O)(O)OP(=O)(O)OP(=O)(O)O)[C@@H](O)[C@@H]1O	> 100 µM	> 100 µM	> 100 µM	> 100 µM	10.5 µM	> 100 µM	> 100 µM
CO[C@@H]1[C@H](O)[C@@H](COP(=O)(O)OP(=O)(O)OP(=O)(O)O)O[C@H]1n1cnc2c(N)ncnc21	> 100 µM	> 100 µM	> 100 µM	> 100 µM	> 100 µM	> 100 µM	> 100 µM
